Data from US20230391788A1 (NAVIN SAXENA RESEARCH & TECHNOLOGY PVT. LTD., priority 2020, published 2023).

What was measured:
[1] = after oral dosing; cited from earlier work
[2] = Storage stability of naltrexone decanoate; assay type: physicochemical; conditions: storage condition of less than 25° C.

SMILES | time at which peak plasma levels occur [1] | period over which stable [2]
Oc1ccc2c3c1O[C@H]1[C@H](O)CC[C@@]4(O)[C@@H](C2)N(CC2CC2)CC[C@]314 [6-β-naltrexol] | one | –
O=C1CC[C@@]2(O)[C@H]3Cc4ccc(O)c5c4[C@@]2(CCN3CC2CC2)[C@H]1O5 [naltrexone, Naltrexone, reference compound] | one | –
CCCCCCCCCC(=O)Oc1ccc2c3c1O[C@H]1C(=O)CC[C@@]4(O)[C@@H](C2)N(CC2CC2)CC[C@]314 [naltrexone decanoate, 17-(cyclopropylmethyl)-4,5-epoxy-14-hydroxy-3-[(1-oxodecyl)oxy]-(5α)-morphinan-6-one] | – | ≤ 60 months
